Test results published in patent US6878536B2, “Phosphoriboxyl-pyrophosphate synthetase polypeptide” (BASF, priority 1997, dated 2005).

Test system: glutamine-PRPP amidotransferase from Ashbya gossypii
Assay: Activity of glutamine-PRPP amidotransferase (Messenger and Zalkin method)
Assay type: biochemical
Settings: wild-type enzyme, FIG. 1
Text: The glutamine-PRPP amidotransferase from Ashbya gossypii is likewise inhibited by AMP or GMP (see Figure). The activity of glutamine-phosphoribosyl-pyrophosphate amidotransferase from Ashbya gossypii can be measured as described in Messenger and Zalkin (1979) J. Biol. Chem. 254, pages 3382-3392.
This can be shown, for example, by expressing the enzymes in Ashbya gossypii (see Example 11).
Measurement of the activity of Gln-PRPP amidotransferase from A. gossypii and of modified forms of the enzyme as a function of the concentration of adenosine 5′-monophosphate (AMP) and guanosine 5′-monophosphate (GMP).

Row | SMILES | inhibition of glutamine-PRPP amidotransferase from Ashbya gossypii
1 | Nc1ncnc2c1ncn2[C@@H]1O[C@H](COP(=O)(O)O)[C@@H](O)[C@H]1O [AMP, adenosine 5′-monophosphate] | inhibited
2 | Nc1nc2c(ncn2[C@@H]2O[C@H](COP(=O)(O)O)[C@@H](O)[C@H]2O)c(=O)[nH]1 [GMP, guanosine 5′-monophosphate] | inhibited
